Measurements reported in US5593698A, “Suppression of proliferative response and induction of tolerance with polymorphic class II MHC allopeptides” (Autoimmune, Inc., priority 1993, dated 1997).

test system: LEW rats; test: Delayed Type Hypersensitivity (DTH) response after immunization with allopeptides; type: in vivo, rat; conditions: LEW rats immunized in foot pad with 12.5 μg of one fragment and CFA; FIG. 5
Method: 4. Delayed Type Hypersensitivity (DTH) Response: LEW rats, used as responders, were immunized subcutaneously in the foot pad with 100 μg of the mixture of four RT1.B^u (50 μg) and four RT1.D^u (50 μg) peptides in complete Freund's adjuvant (12.5 μg of each peptide). These animals were challenged subcutaneously 2 weeks later in one ear with 10 μg of the peptide mixture and in the other ear with freshly prepared and irradiated (3000 Rads) splenocytes (10×10^6) from WF (RT1^u), syngeneic LEW (RT1^1), or third party BN (RT1^n). The DTH responses were measured with micrometer caliper (Mitutoyo, Japan) by a blinded observer as the delta ear thickness before and 2 days after the challenge (inches ×10^-2). Experiments were performed using 5 animals in each study group. P values were calculated using the student t-test.
These experiments investigate whether, in addition to polymorphism, the native location of the allopeptide, β-pleat vs. α-helix, may be an important determinant of immunogenicity and tolerogenicity in vivo. The immunogenicity and tolerogenicity of the individual allopeptide fragments were investigated. LEW rats, used as responders, were immunized subcutaneously in the foot pad with 12.5 μg of one of the four RT1.D (1-25, 20-44, 39-64, and 60-84) and four RT1.B (1-25, 20-44, 39-64, and 68-92) allopeptide fragments and CFA. DTH responses were then determined for each of the peptide fragments. […] In FIG. 5, "RT1D mix" and "RT1B mix" refers to animals immunized with a mixture of all four allopeptides. In FIG. 5 solid bars represent immunization with cells, hatched bars represent immunization with peptides. Bars represent the change in ear thickness in […] (mean±SEM).

Substance	Immunogenicity of individual allopeptide fragments by DTH response
RT1.B1: RT1.B allopeptide fragment 1-25, β-pleat (QRLRRDFLVQFKPYCYFTNGTQRIR)	immunogenic
RT1.B2: RT1.B allopeptide fragment 20-44, β-pleat (GTQRIRNVIRYIYNREEYLRYDSDV)	immunogenic
RT1.D1: RT1.D allopeptide fragment 1-25, β-pleat (RDPTPRFLGYLKPECHFYNGTNRVR)	immunogenic
RT1.D2: RT1.D allopeptide fragment 20-44, β-pleat (GTNRVRLLARLIYNREEYARFDSDV)	immunogenic
